# In patent US20250092065A1, “2-(INDAZOL-5-YL)-6-(PIPERIDIN-4-YL)-1,7-NAPHTHYRIDINE DERIVATIVES AND RELATED COMPOUNDS AS MODULATORS FOR SPLICING NUCLEIC ACIDS AND FOR THE TREATMENT OF PROLIFERATIVE DISEASES” (REMIX THERAPEUTICS INC., priority 2022, published 2025):
# Key:
# Target C = experiment: HiBiT protein abundance assay, Target C (K562 HiBiT knock-in); type: cell-based, human; conditions: HiBiT knock-in K562 cells, 24 hours, top dose 10 μM
# Method in brief: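 K562 HiBiT knock-in cells (10000/well) were treated 24 h at 37° C with a 10-point 3-fold dilution series (top 10 μM final, ≤0.25% DMSO). HiBiT luminescence was read after lytic LgBiT detection. Percent response used unmodified K562 and DMSO-treated knock-in controls, and IC50 came from a four-parameter fit at 50% of untreated.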
# HTT = experiment: HiBiT protein abundance assay, HTT (K562 HiBiT knock-in); type: cell-based, human; conditions: HiBiT knock-in K562 cells, 24 hours, top dose 10 μM
# Method in brief: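 Endogenously HiBiT-tagged K562 lines were treated for 24 h at 37 °C with 10-point 3-fold dilutions (top 10 μM final, DMSO ≤0.25%). Lytic LgBiT complementation luminescence was normalized between unmodified K562 (PC) and DMSO-treated tagged cells (NC); IC50 was interpolated at 50% from a four-parameter logistic fit.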
SMILES,IC50 (Target C),IC50 (HTT)
"Cn1cc2cc(-c3ccc4nc([C@@H]5CCNC6(CC6)C5)ccc4n3)c(O)cc2n1 (single isomer, unassigned) [Compound 495]",< 100 nM,< 100 nM
"Cn1cc2cc(-c3ccc4nc([C@H]5CCNC6(CC6)C5)ccc4n3)c(O)cc2n1 (single isomer, unassigned) [Compound 496]",< 100 nM,< 100 nM
"Cc1nc2cc(O)c(-c3ccc4nc([C@H]5CCNC6(CC6)C5)ccc4n3)cc2o1 (single isomer, unassigned) [Compound 497]",< 100 nM,< 100 nM
"Cc1nc2cc(O)c(-c3ccc4nc([C@@H]5CCNC6(CC6)C5)ccc4n3)cc2o1 (single isomer, unassigned) [Compound 498]",< 100 nM,< 100 nM
"CN[C@@H]1CCN(c2ccc3nc(-c4cn5cc(C)nc5c(C)c4O)ncc3n2)C1 (single isomer, unassigned) [Compound 504]",100 to 1000 nM,100 to 1000 nM
"CNC(=O)c1nc(-c2cc3cn(C)nc3c(C)c2O)nc2ccc(N3CCN[C@@H](C)C3)cc12 (single isomer, unassigned) [Compound 512]",100 to 1000 nM,100 to 1000 nM
"CN[C@@H]1CCN(c2ccc3nc(-c4cc5cn(C)nc5c(C)c4O)ncc3c2)C1 (single isomer, unassigned) [Compound 521]",100 to 1000 nM,< 100 nM
"CNC(=O)c1nc(-c2cc3cn(C)nc3c(C)c2O)nc2ccc(N3C[C@@H](C)N[C@H](C)C3)cc12 (single isomer, unassigned) [Compound 653]",100 to 1000 nM,< 100 nM
"Cc1c(O)c(-c2ncc3cc(N4C[C@@H](C)N[C@H](C)C4)ccc3n2)cc2cn(C)nc12 (single isomer, unassigned) [Compound 661]",100 to 1000 nM,100 to 1000 nM
"CNC(=O)c1nc(-c2cc3cn(C)nc3c(F)c2O)nc2ccc(N3C[C@@H](C)N[C@H](C)C3)cc12 (single isomer, unassigned) [Compound 668]",100 to 1000 nM,100 to 1000 nM
"CNC(=O)c1nc(-c2cc3cn(C)nc3c(F)c2O)nc2ccc(N3C[C@H](C)N[C@@H](C)C3)cc12 (single isomer, unassigned) [Compound 669]",100 to 1000 nM,100 to 1000 nM
"CNC(=O)c1nc(-c2cc3cn(C)nc3cc2O)nc2ccc(N3C[C@H](C)N[C@@H](C)C3)cc12 (single isomer, unassigned) [Compound 676]",100 to 1000 nM,100 to 1000 nM
"CNC(=O)c1nc(-c2cc3cn(C)nc3cc2O)nc2ccc(N3C[C@@H](C)N[C@H](C)C3)cc12 (single isomer, unassigned) [Compound 677]",100 to 1000 nM,100 to 1000 nM
"Cc1cn2cc(-c3ccc4cc(N5C[C@H](C)N[C@@H](C)C5)cc(F)c4n3)cc(F)c2n1 (single isomer, unassigned) [Compound 705, 2,2,2-trifluoroacetate]",100 to 1000 nM,100 to 1000 nM
Cn1cc2cc(-c3ncc4nc(C5CCNCC5)ccc4n3)c(O)c(F)c2n1 [Compound 155],< 100 nM,< 100 nM
Cc1nc2cc(O)c(-c3ccc4nc(N5CCNC(C(C)(C)C)C5)ccc4n3)cc2o1 (stereo not shown) [Compound 492],1000 to 10000 nM,100 to 1000 nM
Cc1nc2cc(O)c(-c3ccc4nc(N5CC[C@@H](N(C)C(C)(C)C)C5)ccc4n3)cc2o1 [Compound 493],< 100 nM,< 100 nM
"Cc1c(O)c(-c2nc(C(=O)N(C)C)c3cc(N4CCNCC4)ccc3n2)cc2cn(C)nc12 [Compound 502, 2-(6-hydroxy-2,7-dimethylindazol-5-yl)-N,N-dimethyl-6-(piperazin-1-yl)quinazoline-4-carboxamide]",1000 to 10000 nM,1000 to 10000 nM
"CCNC(=O)c1nc(-c2cc3cn(C)nc3c(C)c2O)nc2ccc(N3CCNCC3)cc12 [Compound 503, N-ethyl-2-(6-hydroxy-2,7-dimethylindazol-5-yl)-6-(piperazin-1-yl)quinazoline-4-carboxamide]",100 to 1000 nM,< 100 nM

SMILES,IC50 (Target C),IC50 (HTT)
"CNC(=O)c1nc(-c2cc(F)c3nc(C)cn3c2)nc2ccc(N3CCNCC3)cc12 [Compound 505, 2-{8-fluoro-2-methylimidazo[1,2-a]pyridin-6-yl}-N-methyl-6-(piperazin-1-yl) quinazoline-4-carboxamide]",100 to 1000 nM,100 to 1000 nM
"CNC(=O)c1nc(-c2cc3cn(C)nc3c(F)c2O)nc2ccc(N3CCNCC3)cc12 [Compound 506, 2-(7-fluoro-6-hydroxy-2-methylindazol-5-yl)-N-methyl-6-(piperazin-1-yl)quinazoline-4-carboxamide]",100 to 1000 nM,100 to 1000 nM
"CNC(=O)c1nc(-c2cc3cn(C)nc3c(C)c2O)nc2ccc(N3CCC(N(C)C)CC3)cc12 [Compound 507, 6-[4-(dimethylamino)piperidin-1-yl]-2-(6-hydroxy-2,7-dimethylindazol-5-yl)-N-methylquinazoline-4-carboxamide]",1000 to 10000 nM,100 to 1000 nM
"CNc1nc(-c2cc3cn(C)nc3c(C)c2O)nc2ccc(N3CCNCC3)cc12 [Compound 508, 2,7-dimethyl-5-[4-(methylamino)-6-(piperazin-1-yl)quinazolin-2-yl]indazol-6-ol]",> 10000 nM,> 10000 nM
"Cc1c(O)c(-c2nc(N(C)C)c3cc(N4CCNCC4)ccc3n2)cc2cn(C)nc12 [Compound 509, 5-[4-(dimethylamino)-6-(piperazin-1-yl)quinazolin-2-yl]-2,7-dimethylindazol-6-ol]",> 10000 nM,> 10000 nM
"CNC(=O)c1nc(-c2cc3cn(C)nc3c(C)c2O)nc2ccc(N3CCC(NC)C3)cc12 (stereo not shown) [Compound 510, 2-(6-hydroxy-2,7-dimethylindazol-5-yl)-N-methyl-6-[3-(methylamino)pyrrolidin-1-yl]quinazoline-4-carboxamide]",100 to 1000 nM,< 100 nM
"CNC(=O)c1nc(-c2cc3cn(C)nc3c(C)c2O)nc2ccc(N3C[C@@H](C)N[C@@H](C)C3)cc12 [Compound 511, 6-[(3R,5S)-3,5-dimethylpiperazin-1-yl]-2-(6-hydroxy-2,7-dimethylindazol-5-yl)-N-methylquinazoline-4-carboxamide]",1000 to 10000 nM,100 to 1000 nM
"CC(=O)c1nc(-c2cc3cn(C)nc3c(F)c2O)nc2ccc(N3CCNCC3)cc12 [Compound 513, 1-(2-(7-fluoro-6-hydroxy-2-methyl-2H-indazol-5-yl)-6-(piperazin-1-yl)quinazolin-4-yl)ethan-1-one 2,2,2-trifluoroacetate]",1000 to 10000 nM,100 to 1000 nM
"Cn1cc2cc(-c3nc(C#N)c4cc(N5CCNCC5)ccc4n3)c(O)c(F)c2n1 [Compound 514, 2-(7-fluoro-6-hydroxy-2-methylindazol-5-yl)-6-(piperazin-1-yl) quinazoline-4-carbonitrile; trifluoroacetic acid]",100 to 1000 nM,100 to 1000 nM
"Cc1c(O)c(-c2ccc3cc(N4CCNCC4)cc(F)c3n2)cc2cn(C)nc12 [Compound 515, 5-[8-fluoro-6-(piperazin-1-yl)quinolin-2-yl]-2,7-dimethylindazol-6-ol]",< 100 nM,< 100 nM
"Cn1cc2cc(-c3ccc4cc(N5CCNCC5)cc(F)c4n3)cc(F)c2n1 [Compound 516, 8-fluoro-2-(7-fluoro-2-methylindazol-5-yl)-6-(piperazin-1-yl)quinoline]",100 to 1000 nM,< 100 nM
"Cc1cn2cc(-c3ccc4cc(N5CCNCC5)cc(F)c4n3)cc(F)c2n1 [Compound 517, 8-fluoro-2-{8-fluoro-2-methylimidazo[1,2-a]pyridin-6-yl}-6-(piperazin-1-yl)quinoline]",100 to 1000 nM,< 100 nM
"Cn1cc2cc(-c3nc(C4CC4)c4cc(N5CCNCC5)ccc4n3)c(O)c(F)c2n1 [Compound 518, 5-[4-cyclopropyl-6-(piperazin-1-yl)quinazolin-2-yl]-7-fluoro-2-methylindazol-6-ol; trifluoroacetic acid]",1000 to 10000 nM,1000 to 10000 nM
"Cc1c(O)c(-c2nc(-c3cncs3)c3cc(N4CCNCC4)ccc3n2)cc2cn(C)nc12 [Compound 519, 2,7-dimethyl-5-[6-(piperazin-1-yl)-4-(1,3-thiazol-5-yl)quinazolin-2-yl]indazol-6-ol]",1000 to 10000 nM,1000 to 10000 nM
"Cc1c(O)c(-c2ncc3cc(N4CCNCC4)ccc3n2)cc2cn(C)nc12 [Compound 520, 2,7-dimethyl-5-[6-(piperazin-1-yl)quinazolin-2-yl]indazol-6-ol]",100 to 1000 nM,100 to 1000 nM
"Cc1c(O)c(-c2nc(-c3nnc[nH]3)c3cc(N4CCNCC4)ccc3n2)cc2cn(C)nc12 [Compound 522, 2,7-dimethyl-5-[6-(piperazin-1-yl)-4-(4H-1,2,4-triazol-3-yl)quinazolin-2-yl]indazol-6-ol; bis(trifluoroacetic acid)]",1000 to 10000 nM,1000 to 10000 nM
"Cc1c(O)c(-c2nc(C(N)=O)c3cc(N4CCNCC4)ccc3n2)cc2cn(C)nc12 [Compound 523, 2-(6-hydroxy-2,7-dimethylindazol-5-yl)-6-(piperazin-1-yl) quinazoline-4-carboxamide]",1000 to 10000 nM,100 to 1000 nM
"Cc1c(O)c(-c2nc(C(=O)O)c3cc(N4CCNCC4)ccc3n2)cc2cn(C)nc12 [Compound 524, 2-(6-hydroxy-2,7-dimethylindazol-5-yl)-6-(piperazin-1-yl) quinazoline-4-carboxylic acid]",> 10000 nM,> 10000 nM
"Cc1c(O)c(-c2ncc3cc(N4C[C@@H](C)N[C@@H](C)C4)ccc3n2)cc2cn(C)nc12 [Compound 525, 5-{6-[(3R,5S)-3,5-dimethylpiperazin-1-yl]quinazolin-2-yl}-2,7-dimethylindazol-6-ol]",100 to 1000 nM,100 to 1000 nM
